Source: ChEMBL document CHEMBL1671742, “Overexpression of the adeB gene in clinical isolates of tigecycline-nonsusceptible Acinetobacter baumannii without insertion mutations in adeRS” (Antimicrob Agents Chemother, 2010)
In brackets after ≈: the same amount, converted by molar mass.

Key:
Acinetobacter baumannii [1] = test: Antibacterial activity against intI1-positive tigecycline-resistant Acinetobacter baumannii AB134 with PFGE subgroup A2 containing carbapenemase OXA-23 and OXA-51 by Etest; assay type: functional
Acinetobacter baumannii [2] = test: Antibacterial activity against intI1-positive tigecycline-intermediate Acinetobacter baumannii AB099 with PFGE subgroup H containing carbapenemase OXA-23 and OXA-51 by Etest; assay type: functional
Acinetobacter baumannii [3] = test: Antibacterial activity against intI1-positive tigecycline-resistant Acinetobacter baumannii AB097 with PFGE subgroup B1 containing carbapenemase OXA-23 and OXA-51 by Etest; assay type: functional
Acinetobacter baumannii [4] = test: Antibacterial activity against intI1-positive tigecycline-resistant Acinetobacter baumannii AB168 with PFGE subgroup A1 containing carbapenemase OXA-23 and OXA-51 by Etest; assay type: functional
Acinetobacter baumannii [5] = test: Antibacterial activity against intI1-positive tigecycline-resistant Acinetobacter baumannii AB118 with PFGE subgroup B2 containing carbapenemase OXA-23 and OXA-51 by Etest; assay type: functional
Acinetobacter baumannii [6] = test: Antibacterial activity against intI1-positive tigecycline-intermediate Acinetobacter baumannii AB166 with PFGE subgroup A3 containing carbapenemase OXA-51 by Etest; assay type: functional
Acinetobacter baumannii [7] = test: Antibacterial activity against intI1-positive tigecycline-susceptible Acinetobacter baumannii AB110 with PFGE subgroup C containing carbapenemase OXA-51 by Etest; assay type: functional
Acinetobacter baumannii [8] = test: Antibacterial activity against intI1-positive tigecycline-resistant Acinetobacter baumannii AB125 with PFGE subgroup A1 containing carbapenemase OXA-23 and OXA-51 by Etest; assay type: functional
Acinetobacter baumannii [9] = test: Antibacterial activity against intI1-negative tigecycline-intermediate Acinetobacter baumannii AB098 with PFGE subgroup F containing carbapenemase OXA-23 and OXA-51 by Etest; assay type: functional
Acinetobacter baumannii [10] = test: Antibacterial activity against intI1-positive tigecycline-susceptible Acinetobacter baumannii AB095 with PFGE subgroup E containing carbapenemase OXA-23 and OXA-51 by Etest; assay type: functional
Acinetobacter baumannii [11] = test: Antibacterial activity against intI1-positive tigecycline-susceptible Acinetobacter baumannii AB018 with PFGE subgroup G containing carbapenemase OXA-58 and OXA-51 by Etest; assay type: functional
Acinetobacter baumannii [12] = test: Antibacterial activity against intI1-positive tigecycline-susceptible Acinetobacter baumannii AB039 with PFGE subgroup B1 containing carbapenemase OXA-23 and OXA-51 by Etest; assay type: functional
Acinetobacter baumannii [13] = test: Antibacterial activity against intI1-positive tigecycline-resistant Acinetobacter baumannii AB096 with PFGE subgroup B1 containing carbapenemase OXA-23 and OXA-51 by Etest; assay type: functional
Acinetobacter baumannii [14] = test: Antibacterial activity against intI1-positive tigecycline-resistant Acinetobacter baumannii AB113 with PFGE subgroup B1 containing carbapenemase OXA-23 and OXA-51 by Etest; assay type: functional
Acinetobacter baumannii [15] = test: Antibacterial activity against intI1-positive tigecycline-resistant Acinetobacter baumannii AB173 with PFGE subgroup B1 containing carbapenemase OXA-23 and OXA-51 by Etest; assay type: functional
Acinetobacter baumannii [16] = test: Antibacterial activity against intI1-positive tigecycline-resistant Acinetobacter baumannii AB106 with PFGE subgroup B1 containing carbapenemase OXA-23 and OXA-51 by Etest; assay type: functional
Acinetobacter baumannii [17] = test: Antibacterial activity against intI1-positive tigecycline-intermediate Acinetobacter baumannii AB127 with PFGE subgroup I containing carbapenemase OXA-23 and OXA-51 by Etest; assay type: functional
Acinetobacter baumannii [18] = test: Antibacterial activity against intI1-positive tigecycline-resistant Acinetobacter baumannii AB118 with PFGE subgroup B2 containing carbapenemase OXA-23 and OXA-51 by Etest in presence of 64 mg/liter 1-(1-naphthylmethyl)-piperazine; assay type: functional
Acinetobacter baumannii [19] = test: Antibacterial activity against intI1-positive tigecycline-resistant Acinetobacter baumannii AB173 with PFGE subgroup B1 containing carbapenemase OXA-23 and OXA-51 by Etest in presence of 64 mg/liter 1-(1-naphthylmethyl)-piperazine; assay type: functional
Serum = test: Steady state drug concentration in human serum; assay type: ADME, cell-free
Acinetobacter baumannii [20] = test: Antibacterial activity against intI1-positive tigecycline-resistant Acinetobacter baumannii AB097 with PFGE subgroup B1 containing carbapenemase OXA-23 and OXA-51 by Etest in presence of 64 mg/liter 1-(1-naphthylmethyl)-piperazine; assay type: functional
Acinetobacter baumannii [21] = test: Antibacterial activity against intI1-positive tigecycline-intermediate Acinetobacter baumannii AB127 with PFGE subgroup I containing carbapenemase OXA-23 and OXA-51 by Etest in presence of 64 mg/liter 1-(1-naphthylmethyl)-piperazine; assay type: functional
Acinetobacter baumannii [22] = test: Antibacterial activity against intI1-positive tigecycline-resistant Acinetobacter baumannii AB106 with PFGE subgroup B1 containing carbapenemase OXA-23 and OXA-51 by Etest in presence of 64 mg/liter 1-(1-naphthylmethyl)-piperazine; assay type: functional
Acinetobacter baumannii [23] = test: Antibacterial activity against Multidrug-resistant Acinetobacter baumannii clinical isolate by broth microdilution method; assay type: functional
Acinetobacter baumannii [24] = test: Antibacterial activity against intI1-positive tigecycline-susceptible Acinetobacter baumannii AB039 with PFGE subgroup B1 containing carbapenemase OXA-23 and OXA-51 by Etest in presence of 64 mg/liter 1-(1-naphthylmethyl)-piperazine; assay type: functional
Acinetobacter baumannii [25] = test: Antibacterial activity against intI1-positive tigecycline-resistant Acinetobacter baumannii AB113 with PFGE subgroup B1 containing carbapenemase OXA-23 and OXA-51 by Etest in presence of 64 mg/liter 1-(1-naphthylmethyl)-piperazine; assay type: functional
Acinetobacter baumannii [26] = test: Antibacterial activity against intI1-positive tigecycline-resistant Acinetobacter baumannii AB096 with PFGE subgroup B1 containing carbapenemase OXA-23 and OXA-51 by Etest in presence of 64 mg/liter 1-(1-naphthylmethyl)-piperazine; assay type: functional
Acinetobacter baumannii [27] = test: Antibacterial activity against intI1-positive tigecycline-susceptible Acinetobacter baumannii AB110 with PFGE subgroup C containing carbapenemase OXA-51 by Etest in presence of 64 mg/liter 1-(1-naphthylmethyl)-piperazine; assay type: functional
Acinetobacter baumannii [28] = test: Antibacterial activity against intI1-positive tigecycline-resistant Acinetobacter baumannii AB125 with PFGE subgroup A1 containing carbapenemase OXA-23 and OXA-51 by Etest in presence of 64 mg/liter 1-(1-naphthylmethyl)-piperazine; assay type: functional
Acinetobacter baumannii [29] = test: Antibacterial activity against intI1-positive tigecycline-intermediate Acinetobacter baumannii AB166 with PFGE subgroup A3 containing carbapenemase OXA-51 by Etest in presence of 64 mg/liter 1-(1-naphthylmethyl)-piperazine; assay type: functional
Acinetobacter baumannii [30] = test: Antibacterial activity against intI1-positive tigecycline-resistant Acinetobacter baumannii AB168 with PFGE subgroup A1 containing carbapenemase OXA-23 and OXA-51 by Etest in presence of 64 mg/liter 1-(1-naphthylmethyl)-piperazine; assay type: functional
Acinetobacter baumannii [31] = test: Antibacterial activity against intI1-positive tigecycline-intermediate Acinetobacter baumannii AB099 with PFGE subgroup H containing carbapenemase OXA-23 and OXA-51 by Etest in presence of 64 mg/liter 1-(1-naphthylmethyl)-piperazine; assay type: functional
Acinetobacter baumannii [32] = test: Antibacterial activity against intI1-positive tigecycline-susceptible Acinetobacter baumannii AB095 with PFGE subgroup E containing carbapenemase OXA-23 and OXA-51 by Etest in presence of 64 mg/liter 1-(1-naphthylmethyl)-piperazine; assay type: functional
Acinetobacter baumannii [33] = test: Antibacterial activity against intI1-negative tigecycline-intermediate Acinetobacter baumannii AB098 with PFGE subgroup F containing carbapenemase OXA-23 and OXA-51 by Etest in presence of 64 mg/liter 1-(1-naphthylmethyl)-piperazine; assay type: functional
Acinetobacter baumannii [34] = test: Antibacterial activity against intI1-positive tigecycline-resistant Acinetobacter baumannii AB134 with PFGE subgroup A2 containing carbapenemase OXA-23 and OXA-51 by Etest in presence of 64 mg/liter 1-(1-naphthylmethyl)-piperazine; assay type: functional
Acinetobacter baumannii [35] = test: Antibacterial activity against intI1-positive tigecycline-susceptible Acinetobacter baumannii AB018 with PFGE subgroup G containing carbapenemase OXA-58 and OXA-51 by Etest in presence of 64 mg/liter 1-(1-naphthylmethyl)-piperazine; assay type: functional
Acinetobacter baumannii [36] = test: Antibacterial activity against Multidrug-resistant Acinetobacter baumannii by broth microdilution method; assay type: functional

SMILES: CCN1CCN(C(=O)N[C@@H](C(=O)N[C@@H]2C(=O)N3[C@@H]2SC(C)(C)[C@@H]3C(=O)O)c2ccccc2)C(=O)C1=O [PIPERACILLIN]
- MIC (Acinetobacter baumannii [1]): > 128 mg/L
- MIC (Acinetobacter baumannii [2]): > 128 mg/L
- MIC (Acinetobacter baumannii [3]): > 128 mg/L
- MIC (Acinetobacter baumannii [4]): > 128 mg/L
- MIC (Acinetobacter baumannii [5]): > 128 mg/L
- MIC (Acinetobacter baumannii [6]): > 128 mg/L
- MIC (Acinetobacter baumannii [7]): > 128 mg/L
- MIC (Acinetobacter baumannii [8]): > 128 mg/L
- MIC (Acinetobacter baumannii [9]): > 128 mg/L
- MIC (Acinetobacter baumannii [10]): > 128 mg/L
- MIC (Acinetobacter baumannii [11]): > 128 mg/L
- MIC (Acinetobacter baumannii [12]): > 128 mg/L
- MIC (Acinetobacter baumannii [13]): > 128 mg/L
- MIC (Acinetobacter baumannii [14]): > 128 mg/L
- MIC (Acinetobacter baumannii [15]): > 128 mg/L
- MIC (Acinetobacter baumannii [16]): > 128 mg/L
- MIC (Acinetobacter baumannii [17]): > 128 mg/L

SMILES: C[C@]1(Cn2ccnn2)[C@H](C(=O)O)N2C(=O)C[C@H]2S1(=O)=O [TAZOBACTAM]
- MIC (Acinetobacter baumannii [1]): 4 mg/L (≈ 13.3 µM)
- MIC (Acinetobacter baumannii [2]): 4 mg/L (≈ 13.3 µM)
- MIC (Acinetobacter baumannii [3]): 4 mg/L (≈ 13.3 µM)
- MIC (Acinetobacter baumannii [4]): 4 mg/L (≈ 13.3 µM)
- MIC (Acinetobacter baumannii [5]): 4 mg/L (≈ 13.3 µM)
- MIC (Acinetobacter baumannii [6]): 4 mg/L (≈ 13.3 µM)
- MIC (Acinetobacter baumannii [7]): 4 mg/L (≈ 13.3 µM)
- MIC (Acinetobacter baumannii [8]): 4 mg/L (≈ 13.3 µM)
- MIC (Acinetobacter baumannii [9]): 4 mg/L (≈ 13.3 µM)
- MIC (Acinetobacter baumannii [10]): 4 mg/L (≈ 13.3 µM)
- MIC (Acinetobacter baumannii [11]): 4 mg/L (≈ 13.3 µM)
- MIC (Acinetobacter baumannii [12]): 4 mg/L (≈ 13.3 µM)
- MIC (Acinetobacter baumannii [13]): 4 mg/L (≈ 13.3 µM)
- MIC (Acinetobacter baumannii [14]): 4 mg/L (≈ 13.3 µM)
- MIC (Acinetobacter baumannii [15]): 4 mg/L (≈ 13.3 µM)
- MIC (Acinetobacter baumannii [16]): 4 mg/L (≈ 13.3 µM)
- MIC (Acinetobacter baumannii [17]): 4 mg/L (≈ 13.3 µM)

SMILES: CN(C)c1cc(NC(=O)CNC(C)(C)C)c(O)c2c1C[C@H]1C[C@H]3[C@H](N(C)C)C(O)=C(C(N)=O)C(=O)[C@@]3(O)C(O)=C1C2=O [TIGECYCLINE]
- MIC (Acinetobacter baumannii [18]): 6 mg/L
- MIC (Acinetobacter baumannii [19]): 4 mg/L
- Css (Serum): 0.63 µg/mL
- MIC (Acinetobacter baumannii [1]): 8 mg/L (≈ 13.7 µM)
- MIC (Acinetobacter baumannii [2]): 6 mg/L (≈ 10.2 µM)
- MIC (Acinetobacter baumannii [3]): 12 mg/L (≈ 20.5 µM)
- MIC (Acinetobacter baumannii [20]): 4 mg/L
- MIC (Acinetobacter baumannii [4]): 8 mg/L (≈ 13.7 µM)
- MIC (Acinetobacter baumannii [21]): 4 mg/L
- MIC (Acinetobacter baumannii [22]): 6 mg/L
- MIC (Acinetobacter baumannii [5]): 8 mg/L (≈ 13.7 µM)
- MIC50 (Acinetobacter baumannii [23]): 16 mg/L (≈ 27.3 µM)
- MIC90 (Acinetobacter baumannii [23]): 32 mg/L (≈ 54.6 µM)
- MIC (Acinetobacter baumannii [24]): 4 mg/L
- MIC (Acinetobacter baumannii [25]): 4 mg/L
- MIC (Acinetobacter baumannii [26]): 8 mg/L
- MIC (Acinetobacter baumannii [27]): 4 mg/L
- MIC (Acinetobacter baumannii [6]): 4 mg/L (≈ 6.83 µM)
- MIC (Acinetobacter baumannii [7]): 2 mg/L (≈ 3.41 µM)
- MIC (Acinetobacter baumannii [8]): 8 mg/L (≈ 13.7 µM)
- MIC (Acinetobacter baumannii [28]): 8 mg/L
- MIC (Acinetobacter baumannii [29]): 4 mg/L
- MIC (Acinetobacter baumannii [30]): 4 mg/L
- MIC (Acinetobacter baumannii [9]): 6 mg/L (≈ 10.2 µM)
- MIC (Acinetobacter baumannii [10]): 2 mg/L (≈ 3.41 µM)
- MIC (Acinetobacter baumannii [11]): 2 mg/L (≈ 3.41 µM)
- MIC (Acinetobacter baumannii [12]): 2 mg/L (≈ 3.41 µM)
- MIC (Acinetobacter baumannii [13]): 16 mg/L (≈ 27.3 µM)
- MIC (Acinetobacter baumannii [31]): 4 mg/L
- MIC (Acinetobacter baumannii [32]): 3 mg/L
- MIC (Acinetobacter baumannii [33]): 4 mg/L
- MIC (Acinetobacter baumannii [14]): 8 mg/L (≈ 13.7 µM)
- MIC (Acinetobacter baumannii [34]): 3 mg/L
- MIC (Acinetobacter baumannii [35]): 2 mg/L
- MIC50 (Acinetobacter baumannii [36]): 2 mg/L (≈ 3.41 µM)
- MIC90 (Acinetobacter baumannii [36]): 4 mg/L (≈ 6.83 µM)
- MIC (Acinetobacter baumannii [15]): 8 mg/L (≈ 13.7 µM)
- MIC (Acinetobacter baumannii [16]): 8 mg/L (≈ 13.7 µM)
- MIC (Acinetobacter baumannii [17]): 4 mg/L (≈ 6.83 µM)
